Experimental data: PMC8780741, “Integration of In Silico, In Vitro and In Situ Tools for the Preformulation and Characterization of a Novel Cardio-Neuroprotective Compound during the Early Stages of Drug Development” (Pharmaceutics, 2022)

Experiment: Apparent permeability across MDCK monolayers
Format: in vitro ADME, Canine
Settings: dog, 37 °C, stirring at 50 rpm
Method: MDCK (Madin–Darby Canine Kidney) cells, their transfected clone MDCK-MDR1, and Caco-2 cells were grown in the modified Dulbecco Eagle medium added with L-glutamine, fetal bovine serum and penicillin−streptomycin. The number of cells seeded in transwells with a surface area of 4.2 cm^2 depended on the cell line: 250,000 cells/cm^2 for MDCK and Caco-2 and 150,000 cells/cm^2 for MDCK-MDR1. Experiments were performed between 7 and 9 days for MDCK and MDCK-MDR1 and between 19 and 21 for Caco-2 cells after seeding. Prior to drug placement, cell monolayer integrity was assessed by measuring transepithelial electrical resistance (TEER). Transport studies were performed on an orbital shaker at 37 °C and 50 rpm. Four samples of 200 μL were taken from the receptor side at 0, 15, 30, 60 and 90 min, and two samples from the donor compartment at the beginning and end of the experiment. A standard experiment was performed with the same buffer for the apical and basolateral compartments in the apical to basolateral (A-B) and basolateral to apical (B-A) directions. The drug concentration was 100 μM in all experiments and samples were analyzed immediately by HPLC. The retention time was 2.3 min at maximum wavelengths (λmax = 260 nm). […] The lower limit of quantitation of JM-20 was adequate to interpolate the values obtained in the samples. […]

Compound `CCOC(=O)C1=C(C)NC2=C(C=Nc3ccccc3N2)C1c1ccccc1[N+](=O)[O-]` (centres unmarked) [JM-20, 3-ethoxycarbonyl-2-methyl-4-(2-nitrophenyl)-4,11-dihydro-1H-pyrido [2,3-b][1,5] benzodiazepine] has a Papp A→B at 90 min, 100 µM of 24.6 ± 1.1 ×10⁻⁶ cm/s and a Papp B→A at 90 min, 100 µM of 2.8 ± 7.1 ×10⁻⁶ cm/s.
